In patent publication US10781224B2, “Bis(oxymethyl)phosphinic acid and biogenic metal salts thereof as regulators of plant growth and development” (priority 2016, dated 2020):

What was measured:
[1] = tested on: corn (Krasnodar 385 MV variety); assay: Corn seed treatment with BHMPA salts: germinating power; assay type: in vivo
Protocol: (§1) Experimental versions—soaking seeds in BHMPA solutions and solutions of BHMPA Ca, Mg, Na, Co, Mn, Cu, and Zn salts at 1·10^−6-1·10^−12% concentrations (doses). The studies were conducted in laboratory in Petri dishes; seed bed—two layers of filter paper. 50 seeds soaked in water (control) and in the solutions of the tested compounds (experimental) were placed into each dish. Wheat, corn, and rice seeds were exposed for one hour.
(§2) Seed germination energy and rate were calculated in percent as an arithmetic mean of the four experimental results (germination energy on the 4th day, wheat germination on the 8th day, rice and corn germination—on the 7th day). Germination was determined based on the germinating power indicators (length of the roots and sprouts and their wet and dry mass per 100 shoots).
(§3) The effect of pre-sowing seed treatment with the claimed BHMPA salts of biogenic metals was studied on winter wheat (Vershin variety), corn (Krasnodar 385 MV variety), and rice (Diamant variety).
The above data describe the seed viability only at the initial stage of germination, while the germination ability at the later stage of germination is defined by the initial germinating power. The method for the determination of the germinating power comprises measuring the height of the sprouts and primary roots, as well as the biomass and the dry mass thereof per 100 seedlings. [M. A. Kartuzova. Initial Germinating Power as Method of Biological Assessment of Seed Quality. Selection and Seed Farming, #2, 1953].

rice (Diamant variety) = assay: Rice seed treatment with BHMPA salts: germination energy and germination rate; assay type: in vivo
Protocol: Control—Soaking Seeds in Water;
as §1
Analysis was conducted according to the government standards GOST 12038-84 “Crop seeds. Technical conditions for determining the germination energy and germination rate”, GOST 12044-93 “Crop seeds. Methods for determining disease contamination.”
as §2, §3

[2] = corn seeds, solution concentration 1 · 10^−9%, cobalt salt of BHMPA
[3] = corn seeds, solution concentration 1 · 10^−10%, cobalt salt of BHMPA
[4] = corn seeds, solution concentration 1 · 10^−11%, cobalt salt of BHMPA
[5] = corn seeds, solution concentration 1 · 10^−12%, cobalt salt of BHMPA
[6] = rice seed treatment, solution 1 · 10^−9%
[7] = seed treatment, concentration 1 · 10^−6%
[8] = seed treatment, concentration 1 · 10^−7%
[9] = seed treatment, concentration 1 · 10^−8%
[10] = seed treatment, concentration 1 · 10^−9%
[11] = seed treatment, concentration 1 · 10^−10%
[12] = seed treatment, concentration 1 · 10^−11%
[13] = seed treatment, concentration 1 · 10^−12%

Which results are given for `O.O.O=P([O-])(CO)CO.O=P([O-])(CO)CO.[Co+2]` [Co-salt, Cobalt BHMPA Salt]?
Mass, wet, sprout [1, 2]: 7.58 g/100 plantlings; Mass, wet, sprout, + % to control [1, 2]: 22%; Length, root [1, 3]: 4.9 cm; Length, root, + % to control [1, 3]: 4%; Length, sprout [1, 3]: 3.3 cm; Length, sprout, + % to control [1, 3]: 10%; Mass, dry, root [1, 3]: 1.29 g/100 plantlings; Mass, dry, root, + % to control [1, 3]: 3%; Mass, dry, sprout [1, 3]: 1.03 g/100 plantlings; Mass, dry, sprout, + % to control [1, 3]: 6%; Mass, wet, root [1, 3]: 9.80 g/100 plantlings; Mass, wet, root, + % to control [1, 3]: 9%; Mass, wet, sprout [1, 3]: 6.75 g/100 plantlings; Mass, wet, sprout, + % to control [1, 3]: 8.5%; Length, root [1, 4]: 4.5 cm; Length, root, + % to control [1, 4]: −4%; Length, sprout [1, 4]: 3.0 cm; Length, sprout, + % to control [1, 4]: 0%; Mass, dry, root [1, 4]: 1.27 g/100 plantlings; Mass, dry, root, + % to control [1, 4]: 2%; Mass, dry, sprout [1, 4]: 0.98 g/100 plantlings; Mass, dry, sprout, + % to control [1, 4]: 1%; Mass, wet, root [1, 4]: 9.62 g/100 plantlings; Mass, wet, root, + % to control [1, 4]: 7%; Mass, wet, sprout [1, 4]: 6.41 g/100 plantlings; Mass, wet, sprout, + % to control [1, 4]: 3%; Length, root [1, 5]: 4.2 cm; Length, root, + % to control [1, 5]: −11%; Length, sprout [1, 5]: 2.9 cm; Length, sprout, + % to control [1, 5]: −3%; Mass, dry, root [1, 5]: 1.22 g/100 plantlings; Mass, dry, root, + % to control [1, 5]: −2%; Mass, dry, sprout [1, 5]: 0.98 g/100 plantlings; Mass, dry, sprout, + % to control [1, 5]: 1%; Mass, wet, root [1, 5]: 9.28 g/100 plantlings; Mass, wet, root, + % to control [1, 5]: 3%; Mass, wet, sprout [1, 5]: 6.23 g/100 plantlings; Mass, wet, sprout, + % to control [1, 5]: 0%; Length, root, + % to control ([1]; corn, 1·10^−7% solution): 32%; Length, sprout, + % to control ([1]; corn, 1·10^−7% solution): 27%; Mass, dry, root, + % to control ([1]; corn, 1·10^−7% solution): 15%; Mass, dry, sprout, + % to control ([1]; corn, 1·10^−7% solution): 25%; Mass, wet, root, + % to control ([1]; corn, 1·10^−7% solution): 20%; Mass, wet, sprout, + % to control ([1]; corn, 1·10^−7% solution): 60%; germination intensity vs control ([1]; corn, 1·10^−11% and 1·10^−12% solutions): no increase in the germination intensity; Germination energy, % (rice (Diamant variety); [6]): 87.5%; Germination rate, % (rice (Diamant variety); [6]): 94.5%; Germination energy (rice (Diamant variety); rice, 1·10^−9% solution): 86.3%; Germination rate (rice (Diamant variety); rice, 1·10^−9% solution): 93.7%; Germination energy (rice (Diamant variety); [7]): 80.7%; Germination rate (rice (Diamant variety); [7]): 84.0%; Germination energy (rice (Diamant variety); [8]): 83.0%; Germination rate (rice (Diamant variety); [8]): 87.0%; Germination energy (rice (Diamant variety); [9]): 84.0%; Germination rate (rice (Diamant variety); [9]): 90.3%; Germination energy (rice (Diamant variety); [10]): 86.3%; Germination rate (rice (Diamant variety); [10]): 93.7%; Germination energy (rice (Diamant variety); [11]): 85.7%; Germination rate (rice (Diamant variety); [11]): 91.3%; Germination energy (rice (Diamant variety); [12]): 84.0%; Germination rate (rice (Diamant variety); [12]): 88.0%; Germination energy (rice (Diamant variety); [13]): 81.3%; Germination rate (rice (Diamant variety); [13]): 85.3%
